For one data set, the target named is T1, mutant AR (LNCaP) (Homo sapiens, UniProt P10275, T878A).
T1 construct: endogenous in cells; host or cells: LNCaP
T1 sequence (P10275 1-920 T878A): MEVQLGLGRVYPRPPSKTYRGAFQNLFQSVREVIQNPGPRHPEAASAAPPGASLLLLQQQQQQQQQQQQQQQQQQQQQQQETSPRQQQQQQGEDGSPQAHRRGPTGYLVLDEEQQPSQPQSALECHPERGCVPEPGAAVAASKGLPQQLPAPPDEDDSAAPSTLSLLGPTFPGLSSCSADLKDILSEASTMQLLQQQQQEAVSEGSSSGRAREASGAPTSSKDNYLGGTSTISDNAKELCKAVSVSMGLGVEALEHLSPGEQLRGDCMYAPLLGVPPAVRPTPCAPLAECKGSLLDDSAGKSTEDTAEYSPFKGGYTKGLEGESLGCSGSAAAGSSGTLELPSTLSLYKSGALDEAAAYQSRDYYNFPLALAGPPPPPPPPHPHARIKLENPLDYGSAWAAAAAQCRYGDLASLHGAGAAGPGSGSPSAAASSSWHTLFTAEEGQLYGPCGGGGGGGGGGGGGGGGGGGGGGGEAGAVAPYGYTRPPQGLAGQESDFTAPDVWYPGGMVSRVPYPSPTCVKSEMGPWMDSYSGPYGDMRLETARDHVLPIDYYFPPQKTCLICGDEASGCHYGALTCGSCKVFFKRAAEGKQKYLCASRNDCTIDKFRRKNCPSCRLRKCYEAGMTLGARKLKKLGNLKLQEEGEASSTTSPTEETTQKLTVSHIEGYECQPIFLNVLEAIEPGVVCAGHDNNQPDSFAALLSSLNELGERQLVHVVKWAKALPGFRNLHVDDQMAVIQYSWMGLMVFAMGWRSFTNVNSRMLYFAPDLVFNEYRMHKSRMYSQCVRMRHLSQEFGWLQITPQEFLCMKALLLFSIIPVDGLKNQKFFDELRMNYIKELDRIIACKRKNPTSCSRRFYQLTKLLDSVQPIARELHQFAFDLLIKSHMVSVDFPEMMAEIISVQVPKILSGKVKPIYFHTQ
The data set is described as follows: AR competition assay with [3H]-R1881 in LNCaP cells. In kind it is binding. The conditions noted are these: for affinity for T877A mutant AR: [3H]-R1881, 30 min. The protocol:
Cells were cultured in serum-free medium for 48 h and then treated with [^3H]-R1881 and the indicated concentrations of D4A, Abi, enzalutamide, R1881 or bicalutamide for 30 min. Cells were washed with 1×PBS 4 times and 0.9% NaCl solution twice before lysis with RIPA buffer.
Cells were starved with phenol red-free and serum free-medium for at least 48 h and then treated with [^3H]-R1881 and the indicated concentrations of drugs for 30 min. Cells were washed thoroughly with PBS and then lysed with […].

Data set [1] is described as follows: Phase II clinical trial NCT01393730: serum Abi metabolites before and after dutasteride. Format: in vivo, human. The settings on record: for mean serum concentration, cycle 3: Abi acetate 1000 mg daily plus prednisone alone; for mean serum concentration, cycle 3 / mean serum concentration, cycle 4: 16 patients; for mean serum concentration, cycle 4: after addition of dutasteride 3.5 mg once daily. The protocol:
Twelve patients with CRPC undergoing treatment with Abi acetate at Cleveland Clinic were consented under an Institutional Review Board—approved protocol (Case 7813). Blood was collected using Vacutainer Plus serum blood collection tubes (#BD367814, Becton Dickenson, Franklin Lakes, N.J.), between 1 and 16 hours after the 1000 mg daily dose of Abi acetate was administered, and allowed to clot. Tubes were centrifuged at 2500 RPM or 1430×g for 10 minutes. Serum aliquots were frozen at −80° C. until processing. To study the effect of dutasteride on Abi metabolism, serum samples were collected from patients treated on a phase II clinical trial at Dana-Farber Cancer Institute (NCT01393730). Each patient received Abi acetate (1,000 mg daily) plus prednisone (5 mg daily) for 2 cycles (8 weeks) and then additional treatment with dutasteride ([…]) was initiated. Samples were collected on treatment with Abi alone and after addition of dutasteride (start of cycles 3, 4 and 7). Seventeen patients treated at this institution on this clinical trial had blood available from all 3 time points. One patient had Abi concentrations that were under the limit of detection and was later determine to have stopped treatment because of adverse effects and was therefore not included in the analysis. Drug metabolites and internal standard (d4-abiraterone, Toronto Research Chemicals Inc, Ontario Canada) were extracted from 100 μL of patient serum with methyl tert-butyl ether (Sigma Aldrich, St. Louis, Mo.), evaporated under a stream of nitrogen gas and reconstituted in methanol:water (50:50) prior to mass spectrometry analysis. Standard curves were generated using human serum spiked with known concentrations of each metabolite to enable determination of unknown concentrations in patient samples
Samples were analyzed on a ultra high-performance liquid chromatography station (Shimadzu, Kyoto, Japan) with a DGU-20A3R degasser, 2 LC-30AD pumps, a SIL-30AC autosampler, a CTO-10A column oven and a CBM-20A system controller in tandem with a QTRAP 5500 mass spectrometer (AB Sciex, Framingham, Mass.). Drug metabolites were ionized using electrospray ionization in positive ion mode. Multiple reaction monitoring was used to follow mass transitions for Abi, IS, and the metabolites (Table 1). Due to the similarity in structure and mass transitions for the metabolites it was necessary to separate them with chromatography. Separation of drug metabolites was achieved using a mobile phase consisting of LC-MS grade (Fisher) methanol: acetonitrile: water:formic acid (39:26:34:1) at a flow rate of 0.2 ml/min., and C18 analytical column; Zorbax Eclipse plus 150×2.1 mm, 3.5 μm (Agilent, Santa Clara, Calif.).

These results are taken from patent US10265329B2, “Altering steroid metabolism for treatment of steroid-dependent disease” (THE CLEVELAND CLINIC FOUNDATION, priority 2015, dated 2019).

pIC50: −log10 of the molar value.

On to `C[C@]12CC[C@@H](O)C[C@@H]1CC[C@@H]1[C@@H]2CC[C@]2(C)C(c3cccnc3)=CC[C@@H]12` [Compound 3α-OH-5α-Abi, 17-(3-pyridyl)-5α-androsta-16-ene-3α-ol], for which the “affinity for T877A mutant AR” value at mutant AR (LNCaP) was “lower”. The “decline in mean serum concentration after the addition of dutasteride” value in data set [1] (cycle 3 vs. cycle 4) turned out to be 92%.

Regarding `C[C@]12CCC(=O)C[C@@H]1CC[C@@H]1[C@@H]2CC[C@]2(C)C(c3cccnc3)=CC[C@@H]12` [Compound 5α-Abi, 17-(3-pyridyl)-5α-androsta-16-ene-3-one], at mutant AR (LNCaP), the “affinity for T877A mutant AR” value is listed as “comparable to that of D4A”. In addition, in data set [1], the “mean serum concentration, cycle 3” value is 25.8 nM and the “mean serum concentration, cycle 4” value was found to be 2.9 nM.

In the case of `C[C@]12CCC(=O)C=C1CC[C@@H]1[C@@H]2CC[C@]2(C)C(c3cccnc3)=CC[C@@H]12` [Compound D4A, 17-(3-Pyridyl)androsta-4,16-dien-3-one], the pIC50 on mutant AR (LNCaP) (competition with 0.1 nM [3H]-R1881, read-out: IC50, affinity for mutant AR) was 8.28. In data set [1], the “mean serum concentration, cycle 3” value came to 9.9 nM and the “mean serum concentration, cycle 4” value was determined as 18.2 nM.

As usually defined, the pIC50 is −log10 of the IC50, conventionally taken in molar units.
